Data published in ChEMBL document CHEMBL3259779, “Discovery of pyrazolopyridones as a novel class of noncovalent DprE1 inhibitor with potent anti-mycobacterial activity” (J Med Chem, 2014).
In brackets after ≈: the same amount, converted by molar mass.

How the values were obtained:
[1] = test system: Mycobacterium tuberculosis; assay: Antimycobacterial activity against Mycobacterium tuberculosis H37Rv ATCC 27294 assessed as growth inhibition after 5 days by microdilution method; assay type: functional; conditions: H37Rv ATCC 27294, 120 h
[2] = Inhibition of Mycobacterium smegmatis DprE1 expressed in Escherichia coli Rosetta cells using farnesyl-phosphoryl-beta-D-ribofuranose as substrate by fluorescence analysis; design: species or system Mycolicibacterium smegmatis
[3] = test system: Mycobacterium tuberculosis; assay: Antimycobacterial activity against Mycobacterium tuberculosis D-211 assessed as growth inhibition after 2 to 3 weeks by turbidometry; assay type: functional
[4] = test system: Mycobacterium tuberculosis; assay: Antimycobacterial activity against Mycobacterium tuberculosis H37Rv ATCC 27294 assessed as growth inhibition after 2 to 3 weeks by turbidometry; assay type: functional
[5] = test system: Mycobacterium tuberculosis; assay: Antimycobacterial activity against Mycobacterium tuberculosis Beijing (E-47/94) assessed as growth inhibition after 2 to 3 weeks by turbidometry; assay type: functional
[6] = test system: Mycobacterium tuberculosis; assay: Antimycobacterial activity against wild type Mycobacterium tuberculosis H37Rv assessed as growth inhibition by resazurin assay; assay type: functional
[7] = Octanol-water partition coefficient, log D of the compound by shake flask method; assay type: physicochemical
[8] = Aqueous kinetic solubility of the compound in 0.1 M phosphate buffer at pH 7.4 by UV-MS analysis; assay type: physicochemical; conditions: read-out: Kinetic_solubility
[9] = Selectivity index, ratio of IC50 human A549 cells to MIC for Mycobacterium tuberculosis; assay type: toxicity, cell-based; conditions: read-out: Selectivity Index
[10] = test system: Mycobacterium tuberculosis; assay: Antimycobacterial activity against Mycobacterium tuberculosis H37Rv ATCC 27294 assessed as reduction of colony forming units by microdilution method; assay type: functional
[11] = Fraction unbound in human plasma at 20 uM by equilibrium dialysis technique; assay type: ADME, cell-free
[12] = Inhibition of Mycobacterium smegmatis DprE1 Y321H mutant expressed in Escherichia coli Rosetta cells using farnesyl-phosphoryl-beta-D-ribofuranose as substrate by fluorescence analysis; design: species or system Mycolicibacterium smegmatis
[13] = test system: Mycolicibacterium smegmatis; assay: Ratio of IC50 for Mycobacterium smegmatis DprE1 Y321H mutant expressed in Escherichia coli Rosetta cells to IC50 for wild type Mycobacterium smegmatis DprE1 expressed in Escherichia coli Rosetta cells
[14] = test system: Mycolicibacterium smegmatis; assay: Ratio of IC50 for Mycobacterium smegmatis DprE1 C394G mutant expressed in Escherichia coli Rosetta cells to IC50 for wild type Mycobacterium smegmatis DprE1 expressed in Escherichia coli Rosetta cells
[15] = Inhibition of Mycobacterium smegmatis DprE1 C394G mutant expressed in Escherichia coli Rosetta cells using farnesyl-phosphoryl-beta-D-ribofuranose as substrate by fluorescence analysis; design: species or system Mycolicibacterium smegmatis
[16] = test system: Mycobacterium tuberculosis; assay: Antimycobacterial activity against Mycobacterium tuberculosis H37Rv infected in human THP-1 cells assessed as log reduction in colony forming units at 16 uM incubated for 7 days measured after 21 to 28 days; assay type: functional
[17] = test system: Mycobacterium tuberculosis; assay: Antimycobacterial activity against Mycobacterium tuberculosis H37Rv assessed as log reduction in colony forming units on day 10 by two-fold serial dilution method; assay type: functional
[18] = test system: Mycobacterium tuberculosis; assay: Antimycobacterial activity against Mycobacterium tuberculosis H37Rv assessed as bacterial killing by two-fold serial dilution method; assay type: functional, organism-based; conditions: TDE = time-dependent effect
[19] = test system: Mycolicibacterium smegmatis; assay: Ratio of IC50 for wild type Mycobacterium smegmatis DprE1 expressed in Escherichia coli Rosetta cells to IC50 for Mycobacterium smegmatis DprE1 C394G mutant expressed in Escherichia coli Rosetta cells

Compound | MIC [1] | IC50 [2] | MIC [6] | MBC [10] | further results
Cc1nn(-c2ccccc2)c2[nH]c(=O)c(CN(C)Cc3cccc(C(F)(F)F)c3)cc12 | 1 µM (≈ 0.426 µg/mL) | 60 nM | – | – | –
CC1COc2c(N3CCN(C)CC3)c(F)cc3c(=O)c(C(=O)O)cn1c23 (stereo unspecified) [OFLOXACIN] | – | – | – | – | MIC [3]: 0.7 µM (≈ 0.253 µg/mL); MIC [4]: 0.7 µM (≈ 0.253 µg/mL); MIC [5]: 0.7 µM (≈ 0.253 µg/mL)
CCOC(=O)NC(=O)c1ccsc1NC(=O)c1nc2ccccc2s1 | – | – | 0.5 µM (≈ 0.188 µg/mL) | – | –
Cc1ccc(C(F)(F)F)nc1CNCc1cc2c(C3CC3)nn(-c3ccccc3)c2[nH]c1=O | 1.5 µM (≈ 0.68 µg/mL) | 10 nM | – | 1.6 µM (≈ 0.726 µg/mL) | logD [7]: 3.4; solubility kinetic [8]: 1 µM (≈ 0.453 µg/mL); selectivity ratio [9]: 10; fraction unbound at 20 µM [11]: < 0.01
Cc1nn(C)c2[nH]c(=O)c(CNCc3cccc(C(F)(F)F)c3)cc12 | > 100 µM | > 100000 nM | – | – | –
CC[C@@H](CO)NCCN[C@@H](CC)CO [ETHAMBUTOL] | – | – | – | – | MIC [3]: 2 µM (≈ 0.409 µg/mL); MIC [4]: 2 µM (≈ 0.409 µg/mL); MIC [5]: 2 µM (≈ 0.409 µg/mL)
Cc1nn(-c2ccccc2)c2[nH]c(=O)c(CNCc3cccc(C#N)c3)cc12 | > 100 µM | 2600 nM | – | – | –
COc1nc2c(cc1CNCc1cccc(C(F)(F)F)c1)c(C)nn2-c1ccccc1 | > 100 µM | > 10000 nM | – | – | –
Cc1nn(-c2ccccc2)c2c1cc(CNCc1cccc(C(F)(F)F)c1)c(=O)n2C | > 100 µM | > 10000 nM | – | – | –
Cc1nn(-c2ccccc2)c2[nH]c(=O)c(C(=O)NCc3cccc(C(F)(F)F)c3)cc12 | > 100 µM | 1000 nM | – | – | –
Cc1ccc(-n2nc(C)c3cc(CNCc4cccc(C(F)(F)F)c4)c(=O)[nH]c32)cc1 | 12.5 µM (≈ 5.33 µg/mL) | 600 nM | – | 12.5 µM (≈ 5.33 µg/mL) | –
O=c1[nH]c2c(cc1CNCc1cccc(C(F)(F)F)c1)c(C1CC1)nn2-c1ccccc1 | 1.5 µM (≈ 0.658 µg/mL) | 40 nM | > 0.1 µM | 2.8 µM (≈ 1.23 µg/mL) | logD [7]: 3.9; solubility kinetic [8]: 1 µM (≈ 0.438 µg/mL); selectivity ratio [9]: 10; MIC [3]: 1.6 µM (≈ 0.702 µg/mL); MIC [4]: 1.6 µM (≈ 0.702 µg/mL); fraction unbound at 20 µM [11]: 0.01; MIC [5]: 1.6 µM (≈ 0.702 µg/mL)
Cc1cccc(CNCc2cc3c(C)nn(-c4ccccc4)c3[nH]c2=O)c1 | 100 µM (≈ 35.8 µg/mL) | 2800 nM | – | 100 µM (≈ 35.8 µg/mL) | –
Cc1ccc(C(F)(F)F)cc1CNCc1cc2c(C)nn(-c3ccccc3)c2[nH]c1=O | 0.8 µM (≈ 0.341 µg/mL) | 7 nM | – | 1.2 µM (≈ 0.512 µg/mL) | IC50 [12]: 1.5 µM; logD [7]: 3.7; Ratio IC50 [13]: 150; solubility kinetic [8]: 55 µM (≈ 23.5 µg/mL); selectivity ratio [9]: 20; Ratio IC50 [14]: 1; IC50 [15]: 10 nM; fraction unbound at 20 µM [11]: < 0.01
Cc1nn(-c2ccccc2)c2[nH]c(=O)c(CNCc3ccccc3)cc12 | > 100 µM | 1400 nM | – | – | –
Cc1ccc(C(F)(F)F)cc1CNCc1cc2c(C3CC3)nn(-c3ccccc3)c2[nH]c1=O | 0.1 µM (≈ 0.0452 µg/mL) | 10 nM | 0.002 µM (≈ 0.000905 µg/mL) | < 0.5 µM | IC50 [12]: 7.4 µM; logD [7]: 3.9; Ratio IC50 [13]: 740; solubility kinetic [8]: < 1 µM; selectivity ratio [9]: > 250; log10cfu [16]: 1; Ratio IC50 [14]: 1; log10cfu [17]: >4; fraction unbound at 20 µM [11]: < 0.01; Activity [18]: tde

Compound | MIC [1] | IC50 [2] | MIC [6] | MBC [10] | further results
O=c1[nH]c2c(cc1CNCc1cc(C(F)(F)F)ccc1F)c(C1CC1)nn2-c1ccccc1 | 1.6 µM (≈ 0.73 µg/mL) | 40 nM | 0.002 µM (≈ 0.000913 µg/mL) | 4.4 µM (≈ 2.01 µg/mL) | IC50 [12]: 4.5 µM; Ratio IC50 [13]: 107; IC50 [15]: 10 nM; Ratio IC50 [19]: 4
Cc1nn(-c2ccccc2)c2[nH]c(=O)c(CNCc3cccc(C(F)(F)F)c3)cc12 | 3.1 µM (≈ 1.28 µg/mL) | 400 nM | > 0.1 µM | 8.5 µM (≈ 3.51 µg/mL) | MIC [3]: 3.1 µM (≈ 1.28 µg/mL); MIC [4]: 3.1 µM (≈ 1.28 µg/mL); MIC [5]: 3.1 µM (≈ 1.28 µg/mL)
Cc1nn(-c2ccccn2)c2[nH]c(=O)c(CNCc3cccc(C(F)(F)F)c3)cc12 | > 100 µM | – | – | – | –
O=c1[nH]c2c(cc1CNCc1cccc(C(F)(F)F)c1F)c(C1CC1)nn2-c1ccccc1 | 1.6 µM (≈ 0.73 µg/mL) | < 5 nM | 0.003 µM (≈ 0.00137 µg/mL) | 4.1 µM (≈ 1.87 µg/mL) | IC50 [12]: 8.2 µM; Ratio IC50 [13]: 38; IC50 [15]: 60 nM; Ratio IC50 [19]: 4
NNC(=O)c1ccncc1 [ISONIAZID] | – | – | 5 µM (≈ 0.686 µg/mL) | – | MIC [3]: 0.2 µM (≈ 0.0274 µg/mL); MIC [4]: 0.2 µM (≈ 0.0274 µg/mL); MIC [5]: 0.2 µM (≈ 0.0274 µg/mL)
Cc1ccc(C(F)(F)F)cc1CNCc1cc2c(C(C)C)nn(-c3ccccc3)c2[nH]c1=O | 0.4 µM (≈ 0.182 µg/mL) | < 5 nM | – | < 0.5 µM | logD [7]: > 4.4; solubility kinetic [8]: 10 µM (≈ 4.54 µg/mL); selectivity ratio [9]: 35; fraction unbound at 20 µM [11]: < 0.01
Cc1ccc(CNCc2cc3c(C)nn(-c4ccccc4)c3[nH]c2=O)cc1C | 25 µM (≈ 9.31 µg/mL) | 1200 nM | – | 50 µM (≈ 18.6 µg/mL) | –
COc1ncnc(Cn2cc(C(=O)NCCF)c3ncccc32)c1C | – | 5 nM | 1.51 µM (≈ 0.52 µg/mL) | – | –
Cc1nn(-c2ccccc2)c2[nH]c(=O)c(CN3CCc4ccc(C(F)(F)F)cc4C3)cc12 | > 100 µM | 6200 nM | – | – | –
C[C@H]1COC2(CCN(c3nc(=O)c4cc(C(F)(F)F)cc([N+](=O)[O-])c4s3)CC2)O1 [BTZ-043] | – | 5 nM | 0.003 µM (≈ 0.00129 µg/mL) | – | –
C[C@@H](NC(=O)c1cc([N+](=O)[O-])cc(C(F)(F)F)c1)c1ccccc1 | – | – | 0.943 µM (≈ 0.319 µg/mL) | – | –
O=c1[nH]c2c(cc1CNCc1cccc(C(F)(F)F)n1)c(C1CC1)nn2-c1ccccc1 | 3.1 µM (≈ 1.36 µg/mL) | 50 nM | > 0.1 µM | 5.6 µM (≈ 2.46 µg/mL) | IC50 [12]: 6.1 µM; logD [7]: 3.2; Ratio IC50 [13]: 40; solubility kinetic [8]: 153 µM (≈ 67.2 µg/mL); selectivity ratio [9]: 20; IC50 [15]: 20 nM; Ratio IC50 [19]: 6; fraction unbound at 20 µM [11]: 0.011
CN[C@@H]1[C@H](O[C@H]2[C@H](O[C@H]3[C@H](O)[C@@H](O)[C@H](N=C(N)N)[C@@H](O)[C@@H]3N=C(N)N)O[C@@H](C)[C@]2(O)C=O)O[C@@H](CO)[C@H](O)[C@H]1O [STREPTOMYCIN] | – | – | – | – | MIC [3]: 0.3 µM (≈ 0.174 µg/mL); MIC [4]: 0.3 µM (≈ 0.174 µg/mL); MIC [5]: 0.3 µM (≈ 0.174 µg/mL)
Cc1nn(-c2ccccc2)c2[nH]c(=O)c(CNCc3cccc(F)c3)cc12 | 75 µM (≈ 27.2 µg/mL) | 2000 nM | – | 100 µM (≈ 36.2 µg/mL) | –
CO[C@H]1/C=C/O[C@@]2(C)Oc3c(C)c(O)c4c(O)c(c(/C=N/N5CCN(C)CC5)c(O)c4c3C2=O)NC(=O)/C(C)=C\C=C\[C@H](C)[C@H](O)[C@@H](C)[C@@H](O)[C@@H](C)[C@H](OC(C)=O)[C@@H]1C [RIFAMPIN] | – | – | – | – | MIC [3]: 0.02 µM (≈ 0.0165 µg/mL); MIC [4]: 0.02 µM (≈ 0.0165 µg/mL); MIC [5]: 0.02 µM (≈ 0.0165 µg/mL)
